Results from patent publication US20050169984A1, “Pharmaceutical hard capsule containing inorganic substance” (DAIICHI SUNTORY PHARMA CO., LTD., priority 2004, published 2005).

Columns and labels:
[1] = background statement; cited from earlier work
[2] = Generation of Compound 2 on sealed non-contact storage of faropenem daloxate with hard gelatin capsule (HPLC peak area ratio); format: physicochemical
Description: (drifting moisture) for 7 days, and observed for the change. 1, generation quantity of Compound 2 has increased and hard gelatin capsule has insolubilized after 3 days of preservation. From the result, it is confirmed that insolubilization of hard gelatin capsule is caused by low molecular, gaseous aldehyde-like substance generated from degradation of faropenem daloxate.
FIG. 2 is showing the testing condition of observation for change while faropenem daloxate is kept with hard gelatin capsule without any contact with the capsule in sealed glass container at 60° C. (drifting moisture) for 7 days.

Structure (SMILES): Cc1oc(=O)oc1COC(=O)C1=C([C@H]2CCCO2)S[C@@H]2[C@@H]([C@@H](C)O)C(=O)N12 [faropenem daloxate, (5-methyl-2-oxo-1,3-dioxolene-4-yl)methyl (5R,6S)-6-[(R)-1-hydroxyethyl]-7-oxo-3-[(R)-2-tetrahydrofuryl]-4-thia-1-azabicyclo[3.2.0]hept-2-ene-2-carboxylate]
- oral absorbability [1]: ≥ 70%
- Generation quantity of Compound 2 (%) ([2]; 60° C./drifting humidity/3 days): 0.02%
- Generation quantity of Compound 2 (%) ([2]; 60° C./drifting humidity/5 days): 0.04%
- Generation quantity of Compound 2 (%) ([2]; 60° C./drifting humidity/7 days): 0.07%
